Experimental data reported in patent US20070117770A1, “Human ribosomal DNA (rDNA) and ribosomal RNA (rRNA) nucleic acids and uses thereof” (Cylene Pharmaceuticals, Inc., priority 2005, published 2007).

Tests used:
Experiment in all cases: Protein kinase inhibition assay
Format in all cases: biochemical
[1] = target: CDK7/cyclinH/MAT1(h) (Homo sapiens, UniProt P50613); conditions: read-out: percent residual activity of CDK7/cyclinH/MAT1(h)
Method: (§1) Certain compounds were tested for activity in protein kinase inhibition assays. All substrates were dissolved and diluted to working stocks in de-ionized water, apart from histone H1 (10× working stock in 20 mM MOPS pH 7.0), PDKtide (10× working stock in 50 mM Tris pH 7.0) ATF2 (which is typically stored at a 20× working stock in 50 mM Tris pH 7.5, 150 mM NaCl, 0.1 mM EGTA, 0.03% Brij-35, 50% glycerol, 1 mM benzamidine, 0.2 mM PMSF and 0.1% R-mercaptoethanol), KKLNRTLSFAEPG (SEQ ID NO:203) and RRRLSFAEPG (SEQ ID NO:204) (50 mM HEPES pH 7.4) and GGEEEEYFELVKKKK (SEQ ID NO:205) (20 mM MOPS pH 7.0). All kinases were pre-diluted to a 10× working concentration prior to addition into the assay. The composition of the dilution buffer for each kinase is detailed below.
(§2) In a final reaction volume of 25 μl, CDK7/cyclinH/MAT1 (h) (5-10 mU) is incubated with 8 mM MOPS pH 7.0, 0.2 mM EDTA, 500 μM peptide, 10 mM MgAcetate and [y-33P-ATP] (specific activity approx. 500 cpm/pmol, concentration as required). The reaction is initiated by the addition of the MgATP mix. After incubation for 40 minutes at room temperature, the reaction is stopped by the addition of 5 μl of a 3% phosphoric acid solution. 10 μl of the reaction is then spotted onto a P30 filtermat and washed three times for 5 minutes in 75 mM phosphoric acid and once in methanol prior to drying and scintillation counting.

[2] = target: cSRC(h) (Homo sapiens, UniProt P12931); conditions: read-out: percent residual activity of cSRC(h)
Method: as §1
(§3) In a final reaction volume of 25 μl, cSRC (h) (5-10 mU) is incubated with 8 mM MOPS pH 7.0, 0.2 mM EDTA, 250 μM KVEKIGEGTYGVVYK (SEQ ID NO:211) (Cdc2 peptide), 10 mM MgAcetate and [y-33P-ATP] (specific activity approx. 500 cpm/pmol, concentration as required). The reaction is initiated by the addition of the MgATP mix. After incubation for 40 minutes at room temperature, the reaction is stopped by the addition of 5 μl of a 3% phosphoric acid solution. […]

[3] = target: GSK3β(h) (Homo sapiens, UniProt P49841); conditions: read-out: percent residual activity of GSK3β(h)
Method: as §1
as §3, with “GSK3β” for “cSRC”, “20” for “250”, “[…](p)EDEEE” for “KVEKIGEGTYGVVYK”, “NO:221) (phospho GS2” for “NO:211) (Cdc2”, “[gamma-33P-ATP]” for “[y-33P-ATP]”

[4] = target: PKCμ(h) (Homo sapiens, UniProt Q15139); conditions: read-out: percent residual activity of PKCμ(h)
Method: as §1
as §2, with “PKCμ” for “CDK7/cyclinH/MAT1”, “20” for “8”, “REPES” for “MOPS”, “7.4, 0.03% Triton X-100, 30” for “7.0, 0.2 mM EDTA, 500”, “KKLNRTLSVA (SEQ ID NO:212),” for “peptide,”, “[gamma-33P-ATP]” for “[y-33P-ATP]”

[5] = target: Rse(h) (Homo sapiens, UniProt Q06418); conditions: read-out: percent residual activity of Rse(h)
Method: as §1
as §3, with “Rse” for “cSRC”, “NO:211), 1 mM MnCl2,” for “NO:211) (Cdc2 peptide),”, “[gamma-33P-ATP]” for “[y-33P-ATP]”

[6] = target: SAPK3(h) (Homo sapiens, UniProt P53778); conditions: read-out: percent residual activity of SAPK3(h)
Method: as §1
as §2, with “SAPK3” for “CDK7/cyclinH/MAT1”, “25” for “8”, “Tris” for “MOPS”, “7.5, 0.02” for “7.0, 0.2”, “EGTA, 0.33 mg/ml myelin basic protein,” for “EDTA, 500 μM peptide,”, “[gamma-33P-ATP]” for “[y-33P-ATP]”

Sequence of Rse(h) (Q06418 41-890): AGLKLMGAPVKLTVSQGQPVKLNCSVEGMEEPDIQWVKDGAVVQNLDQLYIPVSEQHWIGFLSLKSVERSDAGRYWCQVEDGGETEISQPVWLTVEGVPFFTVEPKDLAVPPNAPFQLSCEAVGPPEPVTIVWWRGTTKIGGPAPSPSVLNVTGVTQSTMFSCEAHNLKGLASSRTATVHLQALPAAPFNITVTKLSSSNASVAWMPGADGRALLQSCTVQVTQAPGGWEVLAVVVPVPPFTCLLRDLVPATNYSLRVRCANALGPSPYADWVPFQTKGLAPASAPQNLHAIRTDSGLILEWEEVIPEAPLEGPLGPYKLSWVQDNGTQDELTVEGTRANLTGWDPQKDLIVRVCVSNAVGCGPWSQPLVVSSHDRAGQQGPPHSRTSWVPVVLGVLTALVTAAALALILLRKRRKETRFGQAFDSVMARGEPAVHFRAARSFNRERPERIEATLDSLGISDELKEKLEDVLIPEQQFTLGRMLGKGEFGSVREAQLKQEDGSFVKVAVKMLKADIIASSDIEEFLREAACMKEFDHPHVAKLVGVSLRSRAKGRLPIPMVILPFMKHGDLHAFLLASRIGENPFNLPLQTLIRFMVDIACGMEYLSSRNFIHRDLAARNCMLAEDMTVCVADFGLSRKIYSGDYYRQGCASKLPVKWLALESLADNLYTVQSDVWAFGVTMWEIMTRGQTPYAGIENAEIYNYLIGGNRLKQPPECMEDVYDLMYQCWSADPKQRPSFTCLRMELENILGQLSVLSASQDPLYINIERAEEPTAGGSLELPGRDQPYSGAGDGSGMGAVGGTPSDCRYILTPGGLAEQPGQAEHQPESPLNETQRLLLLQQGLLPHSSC
Sequence of CDK7/cyclinH/MAT1(h) (P50613 whole entry): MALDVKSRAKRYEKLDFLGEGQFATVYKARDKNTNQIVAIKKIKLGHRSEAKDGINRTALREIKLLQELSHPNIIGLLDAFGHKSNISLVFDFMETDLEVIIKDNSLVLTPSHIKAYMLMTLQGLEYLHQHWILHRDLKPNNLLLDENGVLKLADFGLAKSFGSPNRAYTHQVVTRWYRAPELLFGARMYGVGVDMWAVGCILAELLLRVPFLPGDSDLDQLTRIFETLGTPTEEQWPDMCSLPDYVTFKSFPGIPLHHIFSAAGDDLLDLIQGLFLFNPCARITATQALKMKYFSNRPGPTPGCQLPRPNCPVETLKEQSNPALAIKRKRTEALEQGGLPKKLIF
Sequence of CDK7/cyclinH/MAT1(h) (P51946 whole entry partner): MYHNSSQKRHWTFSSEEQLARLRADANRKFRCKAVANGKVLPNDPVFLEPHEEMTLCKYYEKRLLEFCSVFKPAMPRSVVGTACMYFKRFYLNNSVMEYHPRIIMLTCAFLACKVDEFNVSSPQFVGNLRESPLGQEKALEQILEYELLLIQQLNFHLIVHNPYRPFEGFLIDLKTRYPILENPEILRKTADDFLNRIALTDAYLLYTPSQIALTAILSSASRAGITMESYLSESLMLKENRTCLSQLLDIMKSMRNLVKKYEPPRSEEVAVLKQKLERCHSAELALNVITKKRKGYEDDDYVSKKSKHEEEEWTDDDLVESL
Sequence of CDK7/cyclinH/MAT1(h) (P51948 whole entry partner): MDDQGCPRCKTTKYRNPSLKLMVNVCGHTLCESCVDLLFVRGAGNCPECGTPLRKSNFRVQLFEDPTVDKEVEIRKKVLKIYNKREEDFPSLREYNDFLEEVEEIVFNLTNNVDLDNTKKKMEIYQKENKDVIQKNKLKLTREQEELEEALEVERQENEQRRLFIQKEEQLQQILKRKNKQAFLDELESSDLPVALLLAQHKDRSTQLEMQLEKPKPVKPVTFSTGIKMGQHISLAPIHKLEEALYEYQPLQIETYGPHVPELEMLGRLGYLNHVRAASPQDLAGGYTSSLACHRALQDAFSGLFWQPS
Sequence of SAPK3(h) (P53778 whole entry): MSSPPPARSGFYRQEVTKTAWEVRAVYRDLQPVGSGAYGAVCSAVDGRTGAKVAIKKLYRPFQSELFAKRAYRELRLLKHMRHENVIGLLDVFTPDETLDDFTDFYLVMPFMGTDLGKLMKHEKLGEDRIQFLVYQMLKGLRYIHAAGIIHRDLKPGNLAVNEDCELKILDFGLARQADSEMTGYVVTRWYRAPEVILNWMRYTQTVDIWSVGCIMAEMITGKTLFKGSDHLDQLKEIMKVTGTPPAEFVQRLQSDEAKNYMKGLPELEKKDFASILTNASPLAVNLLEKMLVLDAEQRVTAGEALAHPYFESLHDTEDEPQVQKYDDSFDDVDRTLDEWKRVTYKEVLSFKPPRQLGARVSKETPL
Sequence of PKCμ(h) (Q15139 whole entry): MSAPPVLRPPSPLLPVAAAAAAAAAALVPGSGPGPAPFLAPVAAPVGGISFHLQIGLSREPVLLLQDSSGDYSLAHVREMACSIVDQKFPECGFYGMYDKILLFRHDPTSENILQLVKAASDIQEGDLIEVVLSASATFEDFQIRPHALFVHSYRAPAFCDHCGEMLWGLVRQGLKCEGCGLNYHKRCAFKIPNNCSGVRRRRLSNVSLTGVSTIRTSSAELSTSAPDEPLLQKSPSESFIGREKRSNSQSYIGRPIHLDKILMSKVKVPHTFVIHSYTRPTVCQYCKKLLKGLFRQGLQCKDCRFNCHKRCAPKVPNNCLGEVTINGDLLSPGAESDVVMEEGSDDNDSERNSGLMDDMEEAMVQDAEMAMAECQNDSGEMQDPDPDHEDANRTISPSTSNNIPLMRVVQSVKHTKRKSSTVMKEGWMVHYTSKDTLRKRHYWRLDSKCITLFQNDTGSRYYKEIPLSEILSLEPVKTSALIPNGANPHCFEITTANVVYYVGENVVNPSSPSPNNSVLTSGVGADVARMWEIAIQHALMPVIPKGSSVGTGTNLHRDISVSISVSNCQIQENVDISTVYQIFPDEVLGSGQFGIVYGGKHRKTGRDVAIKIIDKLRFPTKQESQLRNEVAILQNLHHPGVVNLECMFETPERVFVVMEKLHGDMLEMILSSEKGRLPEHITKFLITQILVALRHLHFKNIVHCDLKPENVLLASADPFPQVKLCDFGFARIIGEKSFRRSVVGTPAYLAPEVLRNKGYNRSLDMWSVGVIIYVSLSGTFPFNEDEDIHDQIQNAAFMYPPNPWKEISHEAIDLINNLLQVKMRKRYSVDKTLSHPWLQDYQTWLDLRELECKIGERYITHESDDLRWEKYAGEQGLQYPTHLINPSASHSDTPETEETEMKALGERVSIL
Sequence of cSRC(h) (P12931 whole entry): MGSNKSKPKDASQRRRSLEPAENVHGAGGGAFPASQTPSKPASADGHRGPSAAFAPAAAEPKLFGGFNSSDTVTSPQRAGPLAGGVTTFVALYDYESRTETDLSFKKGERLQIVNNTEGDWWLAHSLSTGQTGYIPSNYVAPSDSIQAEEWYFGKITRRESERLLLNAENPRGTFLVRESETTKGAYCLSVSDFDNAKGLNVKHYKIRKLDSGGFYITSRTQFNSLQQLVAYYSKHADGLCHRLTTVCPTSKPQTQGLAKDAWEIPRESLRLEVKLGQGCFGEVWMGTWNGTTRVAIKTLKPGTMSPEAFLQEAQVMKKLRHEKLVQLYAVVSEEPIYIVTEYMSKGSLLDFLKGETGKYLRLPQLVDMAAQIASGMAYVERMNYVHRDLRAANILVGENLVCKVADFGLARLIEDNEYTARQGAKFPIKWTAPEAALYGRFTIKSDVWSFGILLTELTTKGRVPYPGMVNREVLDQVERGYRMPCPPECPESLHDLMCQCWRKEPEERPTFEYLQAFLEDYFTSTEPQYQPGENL
Sequence of GSK3β(h) (P49841 whole entry): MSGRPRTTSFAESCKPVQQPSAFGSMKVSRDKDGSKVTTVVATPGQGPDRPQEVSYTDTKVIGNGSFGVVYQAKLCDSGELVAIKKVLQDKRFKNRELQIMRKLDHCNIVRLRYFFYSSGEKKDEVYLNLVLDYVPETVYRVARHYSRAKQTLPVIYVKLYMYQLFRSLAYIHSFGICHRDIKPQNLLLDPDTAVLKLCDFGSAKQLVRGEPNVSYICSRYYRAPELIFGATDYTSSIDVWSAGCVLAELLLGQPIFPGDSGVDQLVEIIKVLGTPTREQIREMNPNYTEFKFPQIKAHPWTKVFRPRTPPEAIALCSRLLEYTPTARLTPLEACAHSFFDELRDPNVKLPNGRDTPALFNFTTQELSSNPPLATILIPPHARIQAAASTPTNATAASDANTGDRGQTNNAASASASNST

remaining activity at 2.5 µM [1] [%]	remaining activity at 2.5 µM [2] [%]	remaining activity at 2.5 µM [3] [%]	remaining activity at 2.5 µM [4] [%]	remaining activity at 2.5 µM [5] [%]	remaining activity at 2.5 µM [6] [%]	SMILES
95	137	76	94	92	111	CC(=O)N1CCN(c2ccc3c(=O)c(C(=O)NCCN4CCCC4)c4n(C)c5ccccc5n4c3n2)CC1 [Compound B-1]
72	33	135	49	92	85	CN1CCCC1CCNC(=O)c1cn2c3c(c(N4CCC(c5cnccn5)C4)c(F)cc3c1=O)Oc1cc3ccccc3cc1-2 (stereo not drawn) [Compound A-1]
